# PMC7606486, “CFAP45 deficiency causes situs abnormalities and asthenospermia by disrupting an axonemal adenine nucleotide homeostasis module” (Nature Communications, 2020)
# How the values were obtained:
# AK8 = molecular target: T1, AK8 (Homo sapiens, UniProt Q96MA6); test: AMP-agarose pull-down, anti-FLAG immunoblot; format: binding; settings: AMP immobilised on agarose, preferentially the αAH-AMP resin; 500 mM NaCl lysis buffer; labelled compound
# T1 sequence (Q96MA6 1-479): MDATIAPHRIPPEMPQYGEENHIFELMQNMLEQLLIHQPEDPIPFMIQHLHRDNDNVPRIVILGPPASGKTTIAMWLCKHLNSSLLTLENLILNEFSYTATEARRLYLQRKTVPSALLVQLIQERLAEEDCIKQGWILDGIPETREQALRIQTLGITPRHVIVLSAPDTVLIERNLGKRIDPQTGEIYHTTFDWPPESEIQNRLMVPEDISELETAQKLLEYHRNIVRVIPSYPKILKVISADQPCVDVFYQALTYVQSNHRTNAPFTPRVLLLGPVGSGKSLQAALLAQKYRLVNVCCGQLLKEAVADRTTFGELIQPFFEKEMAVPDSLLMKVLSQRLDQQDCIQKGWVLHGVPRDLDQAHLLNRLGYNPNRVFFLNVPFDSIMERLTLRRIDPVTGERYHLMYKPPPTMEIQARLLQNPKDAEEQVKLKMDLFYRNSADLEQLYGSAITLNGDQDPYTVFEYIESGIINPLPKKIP
# CFAP45 = molecular target: T2, CFAP45 (Homo sapiens, UniProt Q9UL16); test: AMP-agarose pull-down, immunoblot or silver stain; format: binding; settings: AMP immobilised on agarose, best with the 6AH-AMP resin; sperm eluates released with 100 mM free 5'-AMP; 500 mM NaCl lysis buffer, pH 8.0, 4 °C; labelled compound
# T2 construct: full length, 551 aa, 66 kDa
# T2 sequence (Q9UL16 whole entry): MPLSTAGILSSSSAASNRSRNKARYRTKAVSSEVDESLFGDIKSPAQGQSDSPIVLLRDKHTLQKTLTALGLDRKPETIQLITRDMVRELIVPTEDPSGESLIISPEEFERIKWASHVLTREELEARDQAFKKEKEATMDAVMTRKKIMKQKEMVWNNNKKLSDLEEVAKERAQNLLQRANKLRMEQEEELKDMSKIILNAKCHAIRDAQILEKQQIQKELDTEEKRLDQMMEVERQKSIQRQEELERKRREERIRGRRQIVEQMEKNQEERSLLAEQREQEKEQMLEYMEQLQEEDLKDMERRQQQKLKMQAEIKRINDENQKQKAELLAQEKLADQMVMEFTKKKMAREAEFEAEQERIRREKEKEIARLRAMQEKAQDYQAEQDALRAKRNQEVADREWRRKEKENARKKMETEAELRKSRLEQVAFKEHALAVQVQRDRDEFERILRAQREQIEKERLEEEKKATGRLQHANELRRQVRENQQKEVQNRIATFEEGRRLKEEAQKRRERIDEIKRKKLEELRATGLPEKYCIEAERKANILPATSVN
smiles,measurement,setting,value
Nc1ncnc2c1ncn2[C@@H]1O[C@H](COP(=O)(O)O)[C@@H](O)[C@H]1O [AMP],"AMP-agarose pull-down, anti-FLAG immunoblot",AK8,NTAP-AK8 shows affinity to αAH-AMP-agarose following elution and IB with monoclonal anti-FLAG antibody
same,"AMP-agarose pull-down, immunoblot or silver stain",CFAP45,"CFAP45 immunoprecipitates recovered from human sperm (see “Methods”) showed affinity to AMP, especially 6AH-AMP-agarose"
